# Test results from publication PMC12406196, “Anticoronavirus Activity of Uridine Glycoconjugates Containing a 1,2,3-Triazole Moiety” (Journal of Medicinal Chemistry, 2025).
# “Also recorded” adds a separate entry of the source.
# Key:
# [1] = system: human coronavirus strain NL63 (HCoV-NL63); test: HCoV-NL63 N protein expression in LLC-Mk2 cells, Western blot and densitometry; type: cell-based; settings: 50 μM, MOI 0.01, 4 days p.i., Western blot/densitometry
# Experimental: LLC-Mk2 monolayers grown in 24-well plates were infected with HCoV-NL63 at an MOI value of 0.01 for 2 h. Unbound virus was removed, and cells were cultured in medium supplemented with different concentrations of compounds. Four days postinfection, cells were collected and lysed in CellLyticM Cell Lysis Reagent (Sigma). Following the protein separation by SDS-PAGE and transfer to PVDF membranes, proteins were immunoblotted using specific mouse anti-N NL63 Abs (Eurofins, Spain) or rabbit anti-β-catenin Abs (Santa Cruz), followed by antimouse or antirabbit secondary antibodies conjugated with HRP. Proteins were visualized and analyzed by chemiluminescence using the UVITEC Cambridge Alliance MINI HD detection system. The densitometric analysis of cells treated with 50 μM dose of a panel of glycoconjugates was performed based on three biological replicates of N and β-catenin immunoblots. The N protein levels were expressed as a percentage relative to DMSO-treated infected cells, while β-catenin levels were expressed as a percentage relative to noninfected control cells. The data were presented as the ratio of N/β-catenin for each sample, normalized accordingly.
# [2] = system: murine hepatitis virus strain A59 (MHV); test: Reduction of MHV cytopathic effect (CPE) in LR7 cells, MTS/PMS readout; type: cell-based; settings: 50 μM, MOI 0.01, 24 h
# Experimental: LR7 cells were seeded in a 96-well plate and cultured overnight. Next, the cells were infected with MHV at an MOI value of 0.01 in medium without FBS. Following 1 h of incubation, the medium containing the virus was collected and cells were covered with a medium supplemented with different concentrations (in triplicate) of the analyzed compounds or DMSO. 24 h p.i. cells viability was evaluated by CellTiter 96 AQueous nonradioactive cell proliferation assay (Promega) according to the manufacturer’s instruction.
# [3] = system: LR7 cells; test: MTS-based cell viability assay in LR7 cells; parameters: species or system mouse; settings: 50 μM, uninfected LR7 cells
# Experimental: LR7, LLC-Mk2 or Vero cells were seeded in 96-well plates and cultured overnight. Next, the medium was changed to a new one supplemented with different concentrations (in triplicate) of analyzed compounds. Following the 2 days (LR7 and Vero) or 4 days (LLC-Mk-2) of incubation, CellTiter 96 AQueous nonradioactive cell proliferation assay (Promega) was performed according to the manufacturer’s instruction. The half-maximal cytotoxic concentration (CC50) was calculated as the concentration of a compound needed to reduce cell viability by 50% using GraphPad Prism software (version 5.01, GraphPad Software, San Diego, CA).
# [4] = system: SARS-CoV-2 replicon; type: cell-based
SMILES,HCoV-NL63 N protein level [1],protection against MHV-induced CPE [2],reduction of cell viability (cytotoxicity in uninfected cells) [3],inhibition of SARS-CoV-2 replication (replicon) [4]
"CC(=O)OC[C@H]1O[C@@H](SCn2cc(CNC(=O)[C@H]3O[C@@H](n4ccc(=O)[nH]c4=O)[C@H](O[Si](C)(C)C(C)(C)C)[C@@H]3O[Si](C)(C)C(C)(C)C)nn2)[C@H](OC(C)=O)[C@@H](OC(C)=O)[C@@H]1OC(C)=O [Compound 22, N-Uracil [(1-(2″,3″,4″,6″-tetra-O-Acetyl-β-D-glucopyranosylthiomethyl)-1,2-3-triazol-4-yl)-methyl]-1′-deoxy-2′,3′-di-O-tert-butyldimethylsilyl-β-D-ribofuranuronamide]",No significant reduction,significantly reduced cell death,no detectable toxicity,
"CC(=O)OC[C@H]1O[C@@H](OCCn2cc(CNC(=O)[C@H]3O[C@@H](n4ccc(=O)[nH]c4=O)[C@H](O[Si](C)(C)C(C)(C)C)[C@@H]3O[Si](C)(C)C(C)(C)C)nn2)[C@H](OC(C)=O)[C@@H](OC(C)=O)[C@@H]1OC(C)=O [Compound 16, N-Uracil [(1-(2″,3″,4″,6″-tetra-O-Acetyl-β-D-glucopyranosyloxyethyl)-1,2-3-triazol-4-yl)-methyl]-1′-deoxy-2′,3′-di-O-tert-butyldimethylsilyl-β-D-ribofuranuronamide]",No significant reduction,,10–30%,
"CC(=O)OC[C@H]1O[C@@H](SCn2cc(CNC(=O)[C@H]3O[C@@H](n4ccc(=O)[nH]c4=O)[C@H](O[Si](C)(C)C(C)(C)C)[C@@H]3O[Si](C)(C)C(C)(C)C)nn2)[C@H](OC(C)=O)[C@@H](OC(C)=O)[C@H]1OC(C)=O [Compound 23, N-Uracil [(1-(2″,3″,4″,6″-tetra-O-Acetyl-β-D-galactopyranosylthiomethyl)-1,2-3-triazol-4-yl)-methyl]-1′-deoxy-2′,3′-di-O-tert-butyldimethylsilyl-β-D-ribofuranuronamide]",No significant reduction,,10–30%,
"CC(=O)OC[C@H]1O[C@@H](OCc2cn(C[C@H]3O[C@@H](n4ccc(=O)[nH]c4=O)[C@H](O[Si](C)(C)C(C)(C)C)[C@@H]3O[Si](C)(C)C(C)(C)C)nn2)[C@H](OC(C)=O)[C@@H](OC(C)=O)[C@@H]1OC(C)=O [Compound 14, 2′,3′-di-O-tert-Butyldimethylsilyl-5′-deoxy-5′-[4-(2″,3″,4″,6″-tetra-O-acetyl-β-D-glucopyranosyloxymethyl)-1,2-3-triazol-1-yl]-uridine]",significantly reduced; also recorded: weaker activity against HCoV-NL63,significantly reduced cell death,10–30%,
"CC(=O)OC[C@H]1O[C@@H](NC(=O)Cn2cc(CNC(=O)[C@H]3O[C@@H](n4ccc(=O)[nH]c4=O)[C@H](O[Si](C)(C)C(C)(C)C)[C@@H]3O[Si](C)(C)C(C)(C)C)nn2)[C@H](OC(C)=O)[C@@H](OC(C)=O)[C@H]1OC(C)=O [Compound 19, N-Uracil [((1-(2-oxo-(2″,3″,4″,6″-tetra-O-Acetyl-β-D-galactopyranosyl)-amino)-ethyl)-1,2-3-triazol-4-yl)-methyl]-1′-deoxy-2′,3′-di-O-tert-butyldimethylsilyl-β-D-ribofuranuronamide]",No significant reduction,limited anti-MHV activity,10–30%,
"CC(=O)OC[C@H]1O[C@@H](SCn2cc(COC[C@H]3O[C@@H](n4ccc(=O)[nH]c4=O)[C@H](O[Si](C)(C)C(C)(C)C)[C@@H]3O[Si](C)(C)C(C)(C)C)nn2)[C@H](OC(C)=O)[C@@H](OC(C)=O)[C@H]1OC(C)=O [Compound 25, 2′,3′-di-O-tert-Butyldimethylsilyl-5′-O-[(1-(2″,3″,4″,6″-tetra-O-acetyl-β-D-galactopyranosylthiomethyl)-1,2-3-triazol-4-yl)-methyl]-uridine]",significantly reduced; also recorded: No N protein was detected,lower activity against MHV,,
"CC(=O)OC[C@H]1O[C@@H](NC(=O)Cn2cc(CNC(=O)[C@H]3O[C@@H](n4ccc(=O)[nH]c4=O)[C@H](O[Si](C)(C)C(C)(C)C)[C@@H]3O[Si](C)(C)C(C)(C)C)nn2)[C@H](OC(C)=O)[C@@H](OC(C)=O)[C@@H]1OC(C)=O [Compound 18, N-Uracil [((1-(2-oxo-(2″,3″,4″,6″-tetra-O-Acetyl-β-D-glucopyranosyl)-amino)-ethyl)-1,2-3-triazol-4-yl)-methyl]-1′-deoxy-2′,3′-di-O-tert-butyldimethylsilyl-β-D-ribofuranuronamide]",No significant reduction,limited anti-MHV activity,10–30%,
"CC(=O)OC[C@H]1O[C@@H](OCCn2cc(CNC(=O)[C@H]3O[C@@H](n4ccc(=O)[nH]c4=O)[C@H](O[Si](C)(C)C(C)(C)C)[C@@H]3O[Si](C)(C)C(C)(C)C)nn2)[C@H](OC(C)=O)[C@@H](OC(C)=O)[C@H]1OC(C)=O [Compound 17, N-Uracil [(1-(2″, 3″, 4″, 6″-tetra-O-Acetyl-β-D-galactopyranosyloxyethyl)-1,2-3-triazol-4-yl)-methyl]-1′-deoxy-2′,3′-di-O-tert-butyldimethylsilyl-β-D-ribofuranuronamide]",No significant reduction,,10–30%,
"CC(C)(C)[C@H](NC(=O)C(F)(F)F)C(=O)N1C[C@H]2[C@@H]([C@H]1C(=O)N[C@H](C#N)C[C@@H]1CCNC1=O)C2(C)C [nirmatrelvir, reference compound]",,,,inhibited SARS-CoV-2 replication
